How the values were obtained:
GPR17 [1] = target: T1, GPR17 (Homo sapiens, UniProt Q13304); test: cAMP accumulation functional assay (HTRF, Schild analysis); type: cell-based; parameters: host or cells: Flp-In T-REx CHO; details: CHO hGPR17 cells, Schild analysis vs MDL29,951, 5 μM forskolin, read-out: cAMP assay pA2 (converted)
How it was run: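 Antagonist affinity (pA2) came from Schild plots of dose ratios, based on MDL29,951 concentration-response curves fitted by 4-parameter logistic. The read-out was HTRF cAMP in 5,000 doxycycline-induced CHO hGPR17 cells per well, with 30 min compound preincubation and 60 min stimulation, at room temperature in pH 7.4 buffer.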

GPR17 [2] = target: T1, GPR17; test: Calcium mobilization functional assay (GPR17 Ca2+ assay); type: cell-based; parameters: host or cells: Flp-In T-REx CHO; details: CHO hGPR17 cells, inhibition of 50 nM MDL29,951, Calcium 5 dye, FLIPR; read-out: Ca2+ assay pIC50 (converted)
How it was run: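 pIC50 values were fitted with a 4-parameter logistic curve. They reflect test-compound inhibition of cytosolic Ca2+ release evoked by 50 nM MDL29,951, tracked as Calcium 5 fluorescence at room temperature. Cells were CHO Flp-In T-REx stably carrying human GPR17, induced with doxycycline 1 μg/mL for 16-20 h.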

T1 sequence (Q13304 whole entry): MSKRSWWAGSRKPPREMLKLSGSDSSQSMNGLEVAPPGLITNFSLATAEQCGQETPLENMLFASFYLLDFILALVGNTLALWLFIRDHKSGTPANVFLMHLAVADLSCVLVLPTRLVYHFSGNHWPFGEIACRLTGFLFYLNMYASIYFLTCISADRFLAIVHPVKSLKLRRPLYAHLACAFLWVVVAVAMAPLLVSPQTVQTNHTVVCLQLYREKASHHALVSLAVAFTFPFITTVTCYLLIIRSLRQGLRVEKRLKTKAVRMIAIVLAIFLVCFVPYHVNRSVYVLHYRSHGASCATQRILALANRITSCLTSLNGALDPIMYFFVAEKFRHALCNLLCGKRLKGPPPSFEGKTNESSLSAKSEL

Row | Structure (SMILES) | Kb (GPR17 [1]) | IC50 (GPR17 [2])
1 | O=S(=O)(Nc1nc(F)c(OCCF)cc1F)c1c[nH]c2cc(Cl)ccc12 [Compound I-364, 6-chloro-N-[3,6-difluoro-5-(2-fluoroethoxy)pyridin-2-yl]-1H-indole-3-sulfonamide] | < 3.16 nM | < 3.16 nM
2 | O=S(=O)(Nc1cccc2nonc12)c1c[nH]c2cc(Cl)ccc12 [Compound I-216, N-(2,1,3-benzoxadiazol-4-yl)-6-chloro-1H-indole-3-sulfonamide] | 3.16 to 31.6 nM | 3.16 to 31.6 nM
3 | O=S(=O)(Nc1cc(F)c(Cl)cc1F)c1c[nH]c2c1ccc1cccnc12 [Compound I-118, N-(4-chloro-2,5-difluorophenyl)-1H-pyrrolo[3,2-h]quinoline-3-sulfonamide] | < 3.16 nM | < 3.16 nM
4 | O=S(=O)(Nc1cccc(F)c1Cl)c1c[nH]c2nc(Br)ccc12 [Compound I-83, 6-bromo-N-(2-chloro-3-fluoorphenyl)-1H-pyrrolo[2,3-b]pyridine-3-sulfonamide] | 3.16 to 31.6 nM | 3.16 to 31.6 nM
5 | O=S(=O)(Nc1cccc2c1OC(F)(F)O2)c1c[nH]c2nc(Cl)ccc12 [Compound I-100, 6-chloro-N-(2,2-difluoro-1,3-benzodioxol-4-yl)-1H-pyrrolo[2,3-b]pyridine-3-sulfonamide] | 3.16 to 31.6 nM | > 31.6 nM
6 | Cc1ccc(NS(=O)(=O)c2c[nH]c3cc(Cl)ccc23)c(F)c1 [Compound I-56, 6-chloro-N-(2-fluoro-4-methylphenyl)-1H-indole-3-sulfonamide] | 3.16 to 31.6 nM | > 31.6 nM
7 | COc1nc(NS(=O)(=O)c2c[nH]c3c(F)c(Cl)ccc23)c(F)cc1F [Compound I-358, 6-chloro-N-(3,5-difluoro-6-methoxypyridin-2-yl)-7-fluoro-1H-indole-3-sulfonamide] | 3.16 to 31.6 nM | 3.16 to 31.6 nM
8 | COc1cc(NS(=O)(=O)c2c[nH]c3cc(Cl)ccc23)ccc1C#N [Compound I-124, 6-chloro-N-(4-cyano-3-methoxyphenyl)-1H-indole-3-sulfonamide] | 3.16 to 31.6 nM | 3.16 to 31.6 nM
9 | O=S(=O)(Nc1cc2nsnc2cc1F)c1c[nH]c2cc(Br)ccc12 [Compound I-193, 6-bromo-N-(6-fluoro-2,1,3-benzothiadiazol-5-yl)-1H-indole-3-sulfonamide] | < 3.16 nM | < 3.16 nM
10 | COc1cnc(NS(=O)(=O)c2c[nH]c3cc(Cl)ccc23)c(OC)c1 [Compound I-264, 6-chloro-N-(3,5-dimethoxypyridin-2-yl)-1H-indole-3-sulfonamide] | > 31.6 nM | > 31.6 nM
11 | COc1cc(NS(=O)(=O)c2c[nH]c3cc(Cl)ccc23)ncc1Cl [Compound I-60, 6-chloro-N-(5-chloro-4-methoxypyridin-2-yl)-1H-indole-3-sulfonamide] | > 31.6 nM | > 31.6 nM
12 | N#Cc1ccc2c(S(=O)(=O)Nc3cc(F)c(OC(F)F)cc3F)c[nH]c2c1 [Compound I-282, 6-cyano-N-[4-(difluoromethoxy)-2,5-difluorophenyl]-1H-indole-3-sulfonamide] | 3.16 to 31.6 nM | 3.16 to 31.6 nM
13 | COCCCc1cc(F)c(NS(=O)(=O)c2c[nH]c3cc(Br)ccc23)nc1F [Compound I-323, 6-bromo-N-[3,6-difluoro-5-(3-methoxypropyl)pyridin-2-yl]-1H-indole-3-sulfonamide] | < 3.16 nM | < 3.16 nM
14 | O=S(=O)(Nc1cccc2c1OC(F)(F)O2)c1c[nH]c2c1ccc1cccnc12 [Compound I-66, N-(2,2-difluoro-1,3-benzodioxol-4-yl)-1H-pyrrolo[3,2-h]quinoline-3-sulfonamide] | 3.16 to 31.6 nM | 3.16 to 31.6 nM
15 | C#Cc1ccc(NS(=O)(=O)c2c[nH]c3cc(OC)ccc23)c(F)c1 [Compound I-274, N-(4-ethynyl-2-fluorophenyl)-6-methoxy-1H-indole-3-sulfonamide] | 3.16 to 31.6 nM | 3.16 to 31.6 nM
16 | O=S(=O)(Nc1cc(F)c(C(F)(F)F)cc1F)c1c[nH]c2nc(Cl)ccc12 [Compound I-303, 6-chloro-N-[2,5-difluoro-4-(trifluoromethyl)phenyl]-1H-pyrrolo[2,3-b]pyridine-3-sulfonamide] | < 3.16 nM | < 3.16 nM

Reference: US12071404B2, “Aza (indole)-, benzothiophene-, and benzofuran-3-sulfonamides” (UCB Pharma GmbH, priority 2016, dated 2024)
